# According to patent US20260137671A1, “PDK4 as a Cell-Aging Intervention Target and Its Use in Chemotherapy and Anticancer” (Shanghai Institute of Nutrition and Health, Chinese Academy …, priority 2022, published 2026):
# How the values were obtained:
# [1] = system: MDA-MB-231 breast cancer cells xenografted together with HBF1203 breast stromal cells; test: MDA-MB-231/HBF1203 xenograft, tumor end volume after chemotherapy and/or PDK4-IN; type: in vivo, SCID mice; conditions: DTX 1.0 mg/kg with PDK4-IN; FIG. 73
# Procedure: All experimental mouse experiments were carried out in strict accordance with the relevant regulations of the Institutional Animal Care and Use Committee (IACUC), Shanghai Institutes for Biological Sciences, Chinese Academy of Sciences. Immuno-deficient mice ICR SCID mice (body weight about 25 g) aged about 6 weeks were used for animal experiments related to the present disclosure. Stromal cells PSC27 and epithelial cells were mixed at a ratio of 1:4, and each graft contained 1.25×10^6 cells for tissue remodeling. The xenograft tumors were implanted into mice by subcutaneous transplantation, and the animals were euthanized 8 weeks after the end of the transplantation surgery. Tumor volume was calculated according to the following formula: V=(π/6)×(([…])/2)^3 (V, volume; 1, length; w, width).
# For pre-clinical chemotherapeutic studies, mice received subcutaneous implantation were given standard laboratory diets. […] The time points were on the first day of the third, fifth and seventh weeks, with a total of 3 cycles of treatment, and each cycle lasted for 2 weeks. After the course of treatment, mouse […] were collected for tumor measurement and histological analysis. […] In order to cause systemic expression of SASP factors induced by chemotherapy, MIT was administered to mice through intravenous infusion according to the above steps and sequence, but the dose was reduced to 0.1 mg/kg body weight/each time (the cumulative dose of MIT received in the whole course of treatment was 0.3 mg/kg body weight) to reduce drug-related toxicity. The chemotherapy experiment ended at the end of the 8th week, and the mice were dissected immediately after sacrifice, and the xenograft tumors were collected and used for pathological system analysis.
# To assess the in vivo effects of chemotherapeutic drugs and/or PDK4-IN treatment in different tumor types, the inventors subsequently generated xenografts composed of breast cancer cell line MDA-MB-231 and breast stromal cell line HBF1203 to replicate the preclinical intervention observed in prostate cancer xenografts.
# HTR2B = molecular target: T1, HTR2B (Homo sapiens, UniProt P41595); test: Malignant phenotype of HTR2B-transduced PCa lines with HTR2B antagonist; type: cell-based; conditions: PCa lines PC3, DU145, M12; antagonist applied under culture conditions
# T1 construct: expressed in transfected cells; host or cells: PCa cell lines (PC3, DU145, M12)
# Source text: FIG. 59. Left, appraisal of the proliferation capacity of PCa lines under different conditions. As the experimental group, human HTR2B was transduced into each PCa cell line, and LY 266097 was used in the culture medium as a control for drug treatment. Middle, measurement of the migration ability of PCa lines under different conditions, with cells treated similarly as described above. Right, measurement of the migration ability of PCa lines under different conditions, with cells treated similarly as described above.
# (§1) After PSC27 cells were cultured in DMEM+0.5% FBS medium for 3 days, then the cell population was washed thoroughly with 1×PBS. After a simple centrifugation, the supernatant was collected as conditioned medium, stored at −80° C. or used directly. Prostate epithelial cells are subjected to in vitro experiments during continuous culture in this conditioned medium for 3 days. For chemotherapy resistance, epithelial cell lines were cultured either in low-serum DMEM (0.5% FBS) (referred to as “DMEM”) or in conditioned medium. Simultaneously, mitoxantrone (MIT) was used to treat cells for 1 to 3 days at concentrations close to the IC50 values for each cell line, followed by observation under a bright-field microscope.
# More importantly, the transduction of HTR2B enhanced resistance of PCa cells to mitoxantrone (MIT). […]
# [2] = system: tumor tissues of mice (PC3/PSC27 xenografts); test: In vivo cellular senescence and SASP expression in xenograft tumors (LCM transcripts, SA-β-Gal staining); parameters: species or system SCID mice; conditions: histological staining, FIG. 68
# Source text: FIG. 66. Transcript assessment of several canonical SASP factors expressed in stromal cells isolated from tumors in SCID mice. LCM isolation, total RNA preparation and expression assays on tissues from animals with simultaneously implanted stromal cells and cancer cells. Note that the group measured as of the lowest value was used as normalization baseline per factor.
# FIG. 67. Transcript assessment of individual canonical SASP factors (AREG), aging markers (p16/p21) and PDK4 expressed in stromal cells isolated from tumors in SCID mice. LCM isolation, total RNA preparation and expression assays on tissues from animals with simultaneously implanted stromal cells and cancer cells. Note that the group measured as of the lowest value was used as normalization baseline per factor.
# FIG. 68. Representative IHC images of SA-β-Gal staining chromatograms from tissues isolated from animals subjected to placebo or drug treatments. Scale bar, 100 μm. Right, Comparative statistical analysis of SA-β-Gal staining for tissues in mice mentioned above.
# Senescence-associated β-galactosidase (SA-β-Gal) staining was performed following a previously reported procedure (Debacq-Chainiaux et al., 2009). Briefly, cells in culture dishes were washed with PBS and fixed at room temperature. Cells were fixed in 2% formaldehyde and 0.2% glutaraldehyde for 3 minutes. SA-β-Gal was used for staining with freshly prepared staining solution overnight at 37° C. Images were taken on the next day and the percentage of positive cells per unit area was calculated.
# For pre-clinical chemotherapeutic studies, mice received subcutaneous implantation were given standard laboratory diets. […] The time points were on the first day of the third, fifth and seventh weeks, with a total of 3 cycles of treatment, and each cycle lasted for 2 weeks. After the course of treatment, mouse […] were collected for tumor measurement and histological analysis. […]
# PC3 = test: MIT-based viability assay of PC3; type: cell-based, human; conditions: PC3, range of concentrations of MIT
# Procedure: FIG. 61. Dose-response curves (non-linear regression/curve fit) plotted from MIT-based viability assays of PC3 exposed to the CM of PSC27-PDK4 cells and treated by a range of concentrations of MIT.
# as §1
# [3] = system: PC3 cells xenografted together with PSC27 cells; test: PC3/PSC27 xenograft, tumor end volume after chemotherapy and/or PDK4-IN; type: in vivo, SCID mice; conditions: MIT alone, 0.2 mg/kg i.p., first day of weeks 3, 5, 7; end of 8-week regimen
# Procedure: All experimental mouse experiments were carried out in strict accordance with the relevant regulations of the Institutional Animal Care and Use Committee (IACUC), Shanghai Institutes for Biological Sciences, Chinese Academy of Sciences. Immuno-deficient mice ICR SCID mice (body weight about 25 g) aged about 6 weeks were used for animal experiments related to the present disclosure. Stromal cells PSC27 and epithelial cells were mixed at a ratio of 1:4, and each graft contained 1.25×10^6 cells for tissue remodeling. The xenograft tumors were implanted into mice by subcutaneous transplantation, and the animals were euthanized 8 weeks after the end of the transplantation surgery. […] For pre-clinical chemotherapeutic studies, mice received subcutaneous implantation were given standard laboratory diets. […] The time points were on the first day of the third, fifth and seventh weeks, with a total of 3 cycles of treatment, and each cycle lasted for 2 weeks. After the course of treatment, mouse […] were collected for tumor measurement and histological analysis. […] The chemotherapy experiment ended at the end of the 8th week, and the mice were dissected immediately after sacrifice, and the xenograft tumors were collected and used for pathological system analysis. To closely mimic clinical conditions involving chemotherapeutic drugs, the inventors designed a preclinical regimen incorporating a genotoxic drug (MIT) and/or the PDK4 inhibitor (PDK4-IN) (FIG. 63).
# [4] = system: cancer cells in tumors (PC3/PSC27 xenografts); test: DNA damage and apoptosis in tumors by IHC (γ-H2AX, cleaved caspase 3); type: in vivo, SCID mice
# Source text: FIG. 69. Statistical evaluating values of DNA-damaged cells and apoptotic cells in analyzed tumor specimens, represented as a percentage of cells positively stained by IHC with antibodies against γ-H2AX or caspase 3 (cleaved).
# FIG. 70. Representative IHC images of caspase 3 (cleaved) in tumors at the end of therapeutic regimens. Biopsies of placebo-treated animals served as negative controls for drug-treated mice. Scale bar, 100 μm.
# Considering the primary in vivo expressive results with MIT and/or PDK4-IN treatment, the inventors next asked how pharmacologically targeting PDK4 could enhance the therapeutic response of tumors. To disclose the possible mechanism(s), the inventors chose to dissect tumors from animals 7 days after initiation of treatment, a timepoint right before the development of resistant colonies.
# T1 sequence (P41595 whole entry): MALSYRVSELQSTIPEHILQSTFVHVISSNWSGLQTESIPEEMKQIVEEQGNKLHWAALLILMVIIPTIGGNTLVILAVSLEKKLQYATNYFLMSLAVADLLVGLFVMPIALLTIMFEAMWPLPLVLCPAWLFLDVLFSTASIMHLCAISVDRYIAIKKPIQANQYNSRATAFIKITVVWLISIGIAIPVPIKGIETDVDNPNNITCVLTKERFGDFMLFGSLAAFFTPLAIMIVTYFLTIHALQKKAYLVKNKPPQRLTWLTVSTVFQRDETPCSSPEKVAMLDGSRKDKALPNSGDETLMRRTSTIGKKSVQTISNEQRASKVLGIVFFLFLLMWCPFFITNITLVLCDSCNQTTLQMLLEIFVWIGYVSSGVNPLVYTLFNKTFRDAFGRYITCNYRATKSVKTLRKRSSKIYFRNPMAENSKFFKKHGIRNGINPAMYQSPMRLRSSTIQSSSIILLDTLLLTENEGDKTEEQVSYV
structure (smiles),measurement,setting,value
"CC(=O)O[C@@]12CO[C@@H]1C[C@H](O)[C@@]1(C)C(=O)[C@H](O)C3=C(C)[C@@H](OC(=O)[C@H](O)[C@@H](NC(=O)OC(C)(C)C)c4ccccc4)C[C@@](O)([C@@H](OC(=O)c4ccccc4)[C@H]21)C3(C)C [docetaxel (DTX), docetaxel]",tumor regression by combination with PDK4-IN (non-genotoxic drug),[1],unable to replicate the effects
COc1ccc(CC2NCCc3c2[nH]c2ccc(C)cc32)c(Cl)c1OC.Cl (stereo not shown) [LY 266097],"HTR2B-conferred gain of proliferation, migration, invasion and resistance to MIT",HTR2B,generally lost
"O=C1c2c(O)ccc(O)c2C(=O)c2c(NCCNCCO)ccc(NCCNCCO)c21 [MIT, mitoxantrone]",SA-β-gal positivity in tumor tissues,[2],elevated SA-β-gal positivity
same,survival curve of cancer cells under genotoxic stress,PC3,declined trend
same,tumor shrinkage (tumor volume reduction),[3],57.5%
same,caspase 3 cleavage (IHC),[4]; MIT administration alone,increased caspase 3 cleavage
same,DNA damage and apoptosis in cancer cells,"[4]; tumors dissected 7 days after initiation of treatment, single agent",caused substantial DNA damage and apoptosis
